This note sets out measurements from patent US20030129189A1, “Tumor necrosis factor-gamma” (priority 1994, published 2003).

One assay concerns NF-kappaB in U937 cells. The assay is described as follows: NF-kappaB-SEAP reporter assay. As to conditions: 72 hr. Format: cell-based. How it is done:
[Bovine pulmonary artery endothelial cells were incubated with various concentrations of TNF-gamma for 48 hours. The apoptosis was assessed by nuclear staining with Hoechst 33342 fluorescence dye (10 mg/ml).] […] [U937 cells were transfected using lipofectamine (following manufacturer's instruction) with 0.2 mg of reporter plasmid (NF-kappaB-SEAP). The transfected U937 cells were collected and added to the 96-well plate ([…]/well) with various concentrated of TNF-gamma. After Incubation at 37° C. for 72 hr, the NF-kappaB activity was measured with luminometer at absorbance of 450 nm.]
Consistent with the Northern blot analysis, peripheral blood mononuclear cells (PBMC) and human umbilical vein endothelial cells (HUVEC) express TNF-gamma on the cell surface by immunostaining with antibody to TNF-gamma. […] The cells were incubated for 30 min at 40° C. with antibody (10 mg/ml ) to TNF-gamma to detected expression of TNF-gamma on cell surface, with DR3-Fc or LTbR-Fc (10 mg/ml) for receptor and ligand binding in the binding buffer (HBSS containing 10% BSA, 20 mM HEPES, pH 7.2, 0.02% NaN3). […] Fluorescence was analyzed by a FACscan flow cytometer (Becton Dickinson, Mountain View, Calif.).] […] After incubation at 37° C. for 72 hr, the NF-kB activity was measured with luminometer at absorbance of 450 nm.] […]

The subject of a further assay is HL-60. The experiment in a line: TNF-gamma activity on HL-60 cells (incl. cell adhesion). The assay is classed as cell-based, human. Set-up: key to Proliferation / Differentiation / Adhesion: The numbers of “+” indicate the relative level of activities.; ++: The numbers of “+” indicate the relative level of activities.; +++: The numbers of “+” indicate the relative level of activities.; “−” indicates no detected activity at the concentration range tested. The method, then: The adherent target cells were prepared from confluent cultures by trypsinization in PBS, and non-adherent target cells were harvested from stationary cultures and washed once with medium. Target cells were suspended at 3×10^5 cells/ml in medium containing 10% FCS. 0.1 ml aliquots were dispensed into 96-well flat-bottomed microtiter plates containing 0.1 ml serially diluted test samples of cells (WEHI 164 and L929). Incubation was continued for 70 hours. TNF-alpha, TNF-beta and bacterially-produced TNF-gamma were added at a 0.5 μg/ml concentration. The cytotoxicity and proliferation activity was quantified using an MTS assay performed by the addition of 20 μl of MTS and phenazine methosulfate (PMS) solution to each well. After a three hour incubation, the OD at 492 nm was measured by an ELISA plate reader. The OD492 is proportional to the number of viable cells in the wells. The percent of cytotoxicity was calculated as follows: […]. The photographs were taken after 72 hours.
To test adhesion ability of TNF-gamma, HL-60 cells were used and cell adhesion and cell-cell contact were measured by observation under the microscope and scored subjectively by two independent investigators. FIG. 11 illustrates the ability of TNF-gamma to induce cell adhesion. Cultures which were not treated with TNF-gamma contained cells which had spread throughout the culture dish.

For assay [1], the system named is NF-kappaB p65 DNA-binding in U-937 cells. The experiment in a line: NF-kappaB activation (EMSA). Format: cell-based. An excerpt:
Activation of cellular NF-kappaB is preceded by the phosphorylation, ubiquitination, and ultimate degradation of an endogenous NF-kappaB inhibitor molecule designated IkBa. Degradation of the inhibitor allows the p65 subunit of NF-kappaB to translocate to the nucleus where it can act as a transcriptional regulator. For this reason, a electrophoretic mobility shift analysis (EMSA) is an appropriate method for analyzing activation of cellular NF-kappaB by treatment of cultured cells with TNF-gamma.
In these analyses cells (2×10^6 per ml) were treated with different concentrations (0.1-1.0 μg/ml) of bacterially-produced TNF-gamma at 37° C. for 12 hours. Nuclear extracts were then prepared from the cultured cells and EMSA was performed as is well-known in the art and essentially as described (Singh, S. and Aggarwal, B. B. J. Biol. Chem. 270:10631-10636 (1995)).
(In general: Mobility shift assays separate free from complexed probe on a gel.)

For another assay, the system named is THP-1. The experiment in a line: TNF-gamma activity on THP-1 cells. Format: cell-based. Set-up: key: The numbers of “+” indicate the relative level of activities.; ++: The numbers of “+” indicate the relative level of activities.; +++: The numbers of “+” indicate the relative level of activities.; “−” indicates no detected activity at the concentration range tested. As to conditions: THP-1, human monocytic leukemia.

[2] abbreviates: HL-60, human promyelocytic leukemia.

“TNF-gamma: new member of the tumor necrosis factor family; the term refers to TNF-gamma-alpha and/or TNF-gamma-beta”: in the assay with NF-kappaB in U937 cells, the NF-kappaB activation entry is given as “induces nuclear factor-kappaB (NF-kappaB)”. Besides, in the assay on HL-60 (setting [2]), the Adhesion result is on record as “++”, the Differentiation result is on record as “−” and the Proliferation entry is recorded as “−”. For the same substance, the “cell adhesion and cell-cell contact” value in the assay on HL-60 (HL-60 cells, observation under the microscope (FIG. 11)) is recorded as “clearly aggregated together”. Further, in assay [1] (12 hours), the “concentration giving peak activation of DNA-binding by p65” value was 1 µg/mL and the “lowest concentration giving an observable increase in p65 DNA-binding” value worked out at 0.2 µg/mL. The “time span of p65 DNA-binding activation over basal levels” value in assay [1] (after initiation of treatment) was “from 30 minutes to 18 hours”. Also, in the assay with THP-1, the Adhesion result is “++”, the Differentiation entry is reported as “++” and the Proliferation result was “−”.
